For this experiment, the target named is T1, hSTING (Homo sapiens, UniProt Q86WV6, G230A/H232R/R293Q/R71H).
T1 construct: host or cells: THP1-Dual KO-IFNAR2 cells
T1 sequence (Q86WV6 whole entry R71H/G230A/H232R/R293Q): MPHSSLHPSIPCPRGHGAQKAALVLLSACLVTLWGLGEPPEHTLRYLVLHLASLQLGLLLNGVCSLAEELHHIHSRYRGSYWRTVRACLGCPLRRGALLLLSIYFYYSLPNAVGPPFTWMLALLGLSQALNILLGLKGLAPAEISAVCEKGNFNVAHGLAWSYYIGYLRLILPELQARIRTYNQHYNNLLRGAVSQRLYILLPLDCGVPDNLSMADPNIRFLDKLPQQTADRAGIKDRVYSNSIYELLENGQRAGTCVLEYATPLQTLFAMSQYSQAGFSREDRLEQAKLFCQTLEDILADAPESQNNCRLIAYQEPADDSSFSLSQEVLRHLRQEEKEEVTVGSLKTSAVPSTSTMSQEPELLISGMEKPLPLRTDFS
The experiment is described as follows: STING reporter assay in THP1-Dual KO-IFNAR2 cells (2′3′cGAMP stimulation, luciferase reporter). The format is cell-based. Conditions: final 2′3′cGAMP 15 μM, 24 h, luciferase reporter activity. The method, then:
STING pathway activation by the compounds described herein was measured using THP1-Dual™ cells (KO-IFNAR2).
THP1-Dual™ KO-IFNAR2 Cells (obtained from invivogen) were maintained in RPMI, 10% FCS, 5 ml P/S, 2 mM L-glut, 10 mM Hepes, and 1 mM sodium pyruvate. Compounds were spotted in empty 384 well tissue culture plates (Greiner 781182) by Echo for a final concentration of 0.0017-100 μM. Cells were plated into the TC plates at 40 μL per well, 2×10E6 cells/mL. For activation with STING ligand, 2′3′cGAMP (MW 718.38, obtained from Invivogen), was prepared in Optimem media.
The following solutions were prepared for each 1×384 plate: • Solution A: 2 mL Optimem with one of the following stimuli: • 60 μL of 10 mM 2′3′cGAMP→150 μM stock • Solution B: 2 mL Optimem with 60 μL Lipofectamine 2000→Incubate 5 min at RT
2 mL of solution A and 2 ml Solution B was mixed and incubated for 20 min at room temperature (RT). 20 μL of transfection solution (A+B) was added on top of the plated cells, with a final 2′3′cGAMP concentration of 15 μM. The plates were then centrifuged immediately at 340 g for 1 minute, after which they were incubated at 37° C., 5% CO2, >98% humidity for 24 h. Luciferase reporter activity was then measured. EC50 values were calculated by using standard methods known in the art.
Luciferase reporter assay: 10 μL of supernatant from the assay was transferred to white 384-plate with flat bottom and squared wells. One pouch of QUANTI-Luc™ Plus was dissolved in 25 mL of water. 100 μL of QLC Stabilizer per 25 mL of QUANTI-Luc™ Plus solution was added. 50 μL of QUANTI-Luc™ Plus/QLC solution per well was then added. Luminescence was measured on a Platereader (e.g., Spectramax I3X (Molecular Devices GF3637001)).
Luciferase reporter activity was then measured. EC50 values were calculated by using standard methods known in the art.
`CCc1ccc(-n2cc(-c3ccc4[nH]cc(NS(=O)(=O)CC5CCCO5)c4c3)cn2)cc1` (stereo not shown) [Compound 101, N-(5-(1-(4-ethylphenyl)-1H-pyrazol-4-yl)-1H-indol-3-yl)-1-(tetrahydrofuran-2-yl)methanesulfonamide] yielded an EC50 of 0.2 to 1 µM.

As for `CCc1ccc(-n2cc(-c3ccc4[nH]cc(NS(=O)(=O)CC5CC5)c4c3)cn2)cc1` [Compound 102, 1-cyclopropyl-N-(5-(1-(4-ethylphenyl)-1H-pyrazol-4-yl)-1H-indol-3-yl)methanesulfonamide], the EC50 was in the range of 0.2 to 1 µM.

`CCc1ccc(-n2cc(-c3ccc4[nH]cc(NS(=O)(=O)C5CCC5)c4c3)cn2)cc1` [Compound 103, N-(5-(1-(4-ethylphenyl)-1H-pyrazol-4-yl)-1H-indol-3 yl)cyclobutanesulfonamide] had an EC50 of 0.2 to 1 µM.

In turn, `CCc1ccc(-n2cc(-c3ccc4[nH]cc(NS(=O)(=O)CC)c4c3)cn2)cc1` [Compound 104, N-(5-(1-(4-ethylphenyl)-1H-pyrazol-4-yl)-1H-indol-3-yl)ethanesulfonamide] gave an EC50 of 1 to 5 µM.
